According to patent US20210315893A1 (Galapagos NV, priority 2017, published 2021):

Columns and labels:
[1] = target: T1, human GPCR sphingosine 1-phosphate receptor 2 (Homo sapiens, UniProt O95136); experiment: S1PR2 antagonist Ca2+ flux assay; assay type: cell-based; conditions: antagonist mode, CHO-S1PR2 cells, S1P at EC80, Ca2+ fluorescence; read-out: S1P2 EC50 (nM), S1P2 antagonist EC50
T1 construct: host or cells: CHO
Procedure, shortened: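 CHO cells stably expressing human S1PR2, serum-starved 1 h, Fluo8-loaded; compound-evoked Ca2+ fluorescence read 3 min (agonist mode), then after 15 min S1P at EC80 added and read 3 min (antagonist mode). Max/baseline fluorescence ratios normalised to vehicle and S1P EC100 or EC50 controls; EC50 derived.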

[2] = target: T2, human GPCR sphingosine 1-phosphate receptor 1 (Homo sapiens, UniProt P21453); experiment: S1PR1 selectivity Ca2+ flux assay (antagonist readout); assay type: cell-based; conditions: antagonist readout, CHO cells overexpressing human S1PR1 and Gq, S1P at EC80 (6 nM); read-out: S1P1 EC50 (nM), S1P1 antagonist EC50
T2 construct: host or cells: CHO
Procedure, shortened: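 CHO cells stably overexpressing human S1PR1, starved 1 h in 0.1% FAF BSA medium, then Fluo 8 dye-loaded. Compound added, then after 15 min at 37 °C, S1P-evoked Ca2+ flux recorded. Maximal signal/background ratio normalized to controls as % inhibition; IC50 from four-parameter logistic fit.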

[3] = target: T3, human GPCR sphingosine 1-phosphate receptor 5 (Homo sapiens, UniProt Q9H228); experiment: S1PR5 selectivity Ca2+ flux assay (antagonist readout); assay type: cell-based; conditions: CHO cells overexpressing human S1PR5 and Gq, agonist at EC80 (20 nM), read-out: S1P5 EC50 (nM), S1P5 antagonist EC50
T3 construct: host or cells: CHO
Procedure, shortened: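 CHO cells stably coexpressing human S1PR5 and Gq were serum-starved, Fluo 8-loaded and preincubated 15 min at 37° C with compound. They were then stimulated at EC80 with an S1PR5-specific agonist, and calcium fluorescence was recorded for 3 min. Peak/baseline ratios were normalized to controls and fitted to a four-parameter IC50 equation.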

S1PR2 = target: T4, S1PR2 (Homo sapiens, UniProt O95136); experiment: S1PR2 binding assay (competition with radioactively labeled S1P, SpA); conditions: membranes from stable cell line over expressing S1PR2, SpA beads; read-out: S1P2 EC50 (nM), S1PR2 binding EC50
T4 construct: expressed in transfected cells
Procedure, shortened: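 Competition with [3H]S1P for membranes from a stable S1PR2-overexpressing cell line, 20 μg/well, captured on PVT-WGA SPA beads, in 20 mM Tris pH 7.5, 10 mM MgCl2, 100 mM NaCl, 0.4% fatty-acid-free BSA, 1 mM Na3VO4. 2 h at room temperature, then centrifugation and scintillation counting.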

HFL-1 cells [4] = experiment: IL-8 production assay (S1P induced IL-8); assay type: cell-based; conditions: Homo sapiens, HFL1; S1P (1 μM) induced IL-8 in HFL-1 cells, starvation medium without HSA; read-out: IL8 EC50
Procedure, shortened: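 HFL-1 human fetal lung fibroblasts were starved in F12K/1% FBS, then given compound for 1 h (10-point, 1/3 dilution, 30 μM top, 0.3% DMSO final). S1P was added at 1 μM final for 16–24 h at 37 °C, and secreted IL-8 in supernatant quantified by ELISA.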

HFL-1 cells [5] = experiment: IL8 assay in the presence of Human Serum Albumin; conditions: HFL1, read-out: HSA IL8 EC50

T4 sequence (O95136 whole entry): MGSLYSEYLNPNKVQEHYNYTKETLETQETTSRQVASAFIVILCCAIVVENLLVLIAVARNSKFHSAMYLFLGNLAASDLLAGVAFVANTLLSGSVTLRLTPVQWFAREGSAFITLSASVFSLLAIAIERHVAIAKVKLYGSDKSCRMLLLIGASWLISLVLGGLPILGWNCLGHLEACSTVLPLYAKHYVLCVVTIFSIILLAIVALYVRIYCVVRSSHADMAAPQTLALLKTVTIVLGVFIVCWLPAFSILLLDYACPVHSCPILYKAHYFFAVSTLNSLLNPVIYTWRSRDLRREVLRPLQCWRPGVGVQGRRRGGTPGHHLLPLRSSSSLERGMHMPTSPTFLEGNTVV
T1 sequence (O95136 whole entry): as above
T2 sequence (P21453 whole entry): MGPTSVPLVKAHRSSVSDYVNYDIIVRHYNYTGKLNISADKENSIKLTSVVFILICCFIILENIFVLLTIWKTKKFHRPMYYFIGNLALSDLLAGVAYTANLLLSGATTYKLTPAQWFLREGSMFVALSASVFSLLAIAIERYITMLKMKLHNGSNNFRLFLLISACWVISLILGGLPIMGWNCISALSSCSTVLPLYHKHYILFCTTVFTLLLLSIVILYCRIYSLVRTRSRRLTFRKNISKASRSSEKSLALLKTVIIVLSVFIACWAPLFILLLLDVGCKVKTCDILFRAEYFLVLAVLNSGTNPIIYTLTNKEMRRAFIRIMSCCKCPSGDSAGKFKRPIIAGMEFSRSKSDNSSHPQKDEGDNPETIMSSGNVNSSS
T3 sequence (Q9H228 whole entry): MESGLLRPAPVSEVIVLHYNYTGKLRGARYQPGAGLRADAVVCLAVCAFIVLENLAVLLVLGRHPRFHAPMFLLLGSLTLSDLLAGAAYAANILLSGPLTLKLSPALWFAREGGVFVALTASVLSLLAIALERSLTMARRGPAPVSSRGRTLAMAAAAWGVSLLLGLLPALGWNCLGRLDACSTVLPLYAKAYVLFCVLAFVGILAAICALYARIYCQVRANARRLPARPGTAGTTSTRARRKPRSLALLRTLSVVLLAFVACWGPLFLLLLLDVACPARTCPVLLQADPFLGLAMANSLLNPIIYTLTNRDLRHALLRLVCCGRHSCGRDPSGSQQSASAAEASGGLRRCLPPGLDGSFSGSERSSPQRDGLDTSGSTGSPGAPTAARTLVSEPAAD

| SMILES | EC50 [1] | EC50 [2] | EC50 [3] | EC50 (S1PR2) | EC50 (HFL-1 cells [4]) | EC50 (HFL-1 cells [5]) |
| --- | --- | --- | --- | --- | --- | --- |
| N#Cc1cc2[nH]c(Cn3cc(C(=O)O)c(=O)c4ccccc43)nc2cc1OCC(F)F [Compound 80, 1-[[6-cyano-5-(2,2-difluoroethoxy)-1H-benzimidazol-2-yl]methyl]-4-oxo-quinoline-3-carboxylic acid] | 42.3 nM | ≥ 19800 nM | 19800 nM | 619 nM | 46.8 nM | 122 nM |
| O=C(Cn1cc(Cc2nc3cc(OCC(F)F)c(Cl)cc3[nH]2)c2ccccc2c1=O)N1CCOCC1 [Compound 169, 4-[6-Chloro-5-(2,2-difluoro-ethoxy)-1H-benzoimidazol-2-ylmethyl]-2-(2-morpholin-4-yl-2-oxo-ethyl)-2H-isoquinolin-1-one] | 19.9 nM | ≥ 19800 nM | 19800 nM | 375 nM | 48.7 nM | 400 nM |
| N#Cc1cc2[nH]c(Cc3nn(CC(=O)N4CCC(O)(C(F)(F)F)C4)c(=O)c4ccccc34)nc2cc1OCC(F)F (stereo not drawn) [Compound 216, 6-(2,2-difluoroethoxy)-2-[[3-[2-[3-hydroxy-3-(trifluoromethyl)pyrrolidin-1-yl]-2-oxo-ethyl]-4-oxo-phthalazin-1-yl]methyl]-3H-benzimidazole-5-carbonitrile] | 13 nM | ≥ 19800 nM | 19800 nM | 44.7 nM | 12.2 nM | 16 nM |
| N#Cc1cc2[nH]c(Cc3nn(CC(=O)N4CCOCC4)c(=O)c4ccccc34)nc2cc1OCC(F)(F)F [Compound 175, 2-[[3-(2-morpholino-2-oxo-ethyl)-4-oxo-phthalazin-1-yl]methyl]-6-(2,2,2-trifluoroethoxy)-3H-benzimidazole-5-carbonitrile] | 11.4 nM | ≥ 19800 nM | 19800 nM | 78.9 nM | 10.9 nM | 61.6 nM |
| O=C(Cn1nc(Cc2nc3cc(Cl)c(OC(F)(F)F)cc3[nH]2)c2c(c1=O)CCCC2)N[C@H]1CCC[C@@H]1O [Compound 146, 2-[4-[[5-chloro-6-(trifluoromethoxy)-1H-benzimidazol-2-yl]methyl]-1-oxo-5,6,7,8-tetrahydrophthalazin-2-yl]-N-[(1S,2S)-2-hydroxycyclopentyl]acetamide] | 15.3 nM | ≥ 19900 nM | 6640 nM | 23 nM | 29.5 nM | 280 nM |
| N#Cc1cc2nc(Cc3nn(CC(=O)N4CCOCC4)c(=O)c4c3CCCC4)[nH]c2cc1OCC(F)F [Compound 164, 6-(2,2-difluoroethoxy)-2-[[3-(2-morpholino-2-oxo-ethyl)-4-oxo-5,6,7,8-tetrahydrophthalazin-1-yl]methyl]-1H-benzimidazole-5-carbonitrile] | 31.9 nM | ≥ 19800 nM | 19800 nM | 129 nM | 42.6 nM | 64.9 nM |
| CC(C(=O)O)c1nn(Cc2nc3cc(OCC4CC4)c(C#N)cc3[nH]2)c2ccccc2c1=O (stereo not drawn) [Compound 107, 2-[1-[[6-cyano-5-(cyclopropylmethoxy)-1H-benzimidazol-2-yl]methyl]-4-oxo-cinnolin-3-yl]propanoic acid] | 3.49 nM | 2150 nM | 19800 nM | 52.9 nM | 0.986 nM | 7.56 nM |
| N#Cc1cc2[nH]c(Cc3nn(C4CCN(CC(=O)O)C4)c(=O)c4ccccc34)nc2cc1OCC(F)F (stereo not drawn) [Compound 71, 2-[3-[4-[[6-cyano-5-(2,2-difluoroethoxy)-1H-benzimidazol-2-yl]methyl]-1-oxo-phthalazin-2-yl]pyrrolidin-1-yl]acetic acid] | 356 nM | ≥ 19800 nM | 19800 nM | 357 nM | 156 nM | 134 nM |
| N#Cc1cc2[nH]c(Cc3nn(CC(=O)N4CCC(O)C(F)(F)C4)c(=O)c4ccccc34)nc2cc1OCC(F)F (stereo not drawn) [Compound 212] | 19.2 nM | ≥ 19800 nM | 19800 nM | 65.6 nM | 10.4 nM | 64 nM |
